We go through 15 molecules from ChEMBL document CHEMBL1144997, “Interaction of cis-(6-benzhydrylpiperidin-3-yl)benzylamine analogues with monoamine transporters: structure-activity relationship study of structurally constrained 3,6-disubstituted piperidine analogues of (2,2-diphenylethyl)-[1-(4-fluorobenzyl)piperidin-4-ylmethyl]amine” (J Med Chem, 2003).

A short description of test [1]: Ratio of [3H]- DA uptake to DAT binding was determined. The class given is functional.
In test [2] the target is Sodium-dependent serotonin transporter (Rattus norvegicus, UniProt P31652). Description: Binding affinity at serotonin transporter in rat striatum by [3H]citalopram displacement. The class given is tissue-based.
The target in test [3] is Norepinephrine transporter (Rattus norvegicus, UniProt Q9WTR4). Description: Binding affinity at the norepinephrine transporter in rat striatum by [3H]nisoxetine displacement. The test is classed as tissue-based.
In test [4] the target is Sodium-dependent dopamine transporter (Rattus norvegicus, UniProt P23977). Description: biochemical. The test is classed as tissue-based, Striatum.
Description: Binding affinity at the dopamine transporter in rast striatum by [3H]WIN-35428 displacement.
The species entered for test [5] is Rattus norvegicus. Description: Inhibition of DAT uptake was determined by measuring the [3H]DA accumulation in rat striatal synaptosomes. The test is classed as functional. The following applies: Brain.

Chain of Sodium-dependent dopamine transporter (P23977 whole entry): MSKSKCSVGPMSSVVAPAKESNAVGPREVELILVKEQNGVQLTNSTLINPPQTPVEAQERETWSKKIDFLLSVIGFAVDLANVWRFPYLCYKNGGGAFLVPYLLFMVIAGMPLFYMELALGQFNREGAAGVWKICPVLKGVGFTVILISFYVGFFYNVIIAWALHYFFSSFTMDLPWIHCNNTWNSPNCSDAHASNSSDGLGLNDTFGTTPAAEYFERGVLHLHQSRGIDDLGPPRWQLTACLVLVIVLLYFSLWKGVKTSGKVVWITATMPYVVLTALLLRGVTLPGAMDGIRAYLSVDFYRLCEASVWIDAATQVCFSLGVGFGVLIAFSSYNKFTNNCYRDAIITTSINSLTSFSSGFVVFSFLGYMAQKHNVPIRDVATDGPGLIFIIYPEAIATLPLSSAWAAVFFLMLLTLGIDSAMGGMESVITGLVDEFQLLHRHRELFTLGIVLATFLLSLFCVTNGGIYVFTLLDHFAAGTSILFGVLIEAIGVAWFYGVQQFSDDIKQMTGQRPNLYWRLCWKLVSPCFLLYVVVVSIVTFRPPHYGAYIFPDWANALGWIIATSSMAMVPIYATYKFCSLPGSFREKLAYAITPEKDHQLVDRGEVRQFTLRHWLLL
Chain of Norepinephrine transporter (Q9WTR4 whole entry): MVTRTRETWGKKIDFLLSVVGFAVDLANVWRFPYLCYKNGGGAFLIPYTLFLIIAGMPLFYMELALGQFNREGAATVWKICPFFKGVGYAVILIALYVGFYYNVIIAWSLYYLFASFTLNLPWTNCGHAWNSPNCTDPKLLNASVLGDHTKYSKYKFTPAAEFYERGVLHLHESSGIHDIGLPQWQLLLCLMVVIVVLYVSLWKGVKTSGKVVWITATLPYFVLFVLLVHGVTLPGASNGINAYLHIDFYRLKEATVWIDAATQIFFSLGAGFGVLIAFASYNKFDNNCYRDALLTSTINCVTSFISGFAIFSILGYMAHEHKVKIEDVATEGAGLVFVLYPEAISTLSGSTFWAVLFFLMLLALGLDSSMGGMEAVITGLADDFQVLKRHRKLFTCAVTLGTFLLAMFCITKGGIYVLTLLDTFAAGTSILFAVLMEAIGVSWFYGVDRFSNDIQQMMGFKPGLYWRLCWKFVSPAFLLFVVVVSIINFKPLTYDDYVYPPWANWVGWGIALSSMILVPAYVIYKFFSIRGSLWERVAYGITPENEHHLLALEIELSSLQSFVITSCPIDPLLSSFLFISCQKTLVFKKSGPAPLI
Chain of Sodium-dependent serotonin transporter (P31652 whole entry): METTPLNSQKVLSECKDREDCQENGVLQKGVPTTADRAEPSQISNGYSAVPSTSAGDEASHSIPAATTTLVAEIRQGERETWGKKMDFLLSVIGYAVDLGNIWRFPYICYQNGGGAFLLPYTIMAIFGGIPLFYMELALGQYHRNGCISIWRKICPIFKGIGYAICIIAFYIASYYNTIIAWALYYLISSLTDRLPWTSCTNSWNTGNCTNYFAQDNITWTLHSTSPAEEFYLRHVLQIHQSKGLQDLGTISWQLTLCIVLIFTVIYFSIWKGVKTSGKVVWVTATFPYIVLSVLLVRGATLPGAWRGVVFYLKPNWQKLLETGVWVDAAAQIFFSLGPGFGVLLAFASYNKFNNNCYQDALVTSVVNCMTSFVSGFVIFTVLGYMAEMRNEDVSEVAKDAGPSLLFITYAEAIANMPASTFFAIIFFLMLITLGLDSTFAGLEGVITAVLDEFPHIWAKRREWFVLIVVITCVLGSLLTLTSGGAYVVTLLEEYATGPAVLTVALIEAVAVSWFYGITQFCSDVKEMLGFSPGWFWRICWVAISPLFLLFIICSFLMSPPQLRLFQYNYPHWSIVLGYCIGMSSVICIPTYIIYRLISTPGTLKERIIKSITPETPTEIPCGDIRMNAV

For the molecule `Fc1ccc(CN2CCC(CNCC(c3ccccc3)c3ccccc3)CC2)cc1`, in test [1], the Selectivity ratio is 2.5.
For orientation: IC50 means the concentration at which inhibition is half-maximal. A low value points to inhibition by little substance. With `Fc1ccc(CN[C@H]2CC[C@@H](C(c3ccccc3)c3ccccc3)NC2)cc1`, the IC50 in test [2] was found to be 1.33 µM; in test [3] it was 1.42 µM; in test [4], 0.0338 µM; in test [5], 0.0538 µM. For the same molecule, the Selectivity ratio in test [1] came out at 1.6.
The matching figures for `Fc1ccc(CN[C@@H]2CC[C@H](C(c3ccccc3)c3ccccc3)NC2)cc1F`: 2.25 µM, 1.59 µM, 0.0635 µM, 0.077 µM and 1.2.
Take `Fc1ccc(CCNC2CCC(C(c3ccccc3)c3ccccc3)NC2)cc1` (stereo not given): the figures for the IC50 in test [2], in test [3] and in test [4] were 2.19 µM, 1.74 µM and 0.173 µM, respectively.
On to `N#Cc1ccc(CN[C@H]2CC[C@@H](C(c3ccccc3)c3ccccc3)NC2)cc1`, for which the IC50 turned out to be 0.434 µM in test [2], 1.67 µM in test [3], 0.0113 µM in test [4] and 0.0091 µM in test [5]. In test [1], the Selectivity ratio amounted to 0.8.
Turning to `c1ccc(CN[C@@H]2CC[C@H](C(c3ccccc3)c3ccccc3)NC2)cc1`, the values for the IC50 in test [2], in test [3] and in test [4] were 2.13 µM, 0.612 µM and 0.114 µM, respectively.
As for `c1ccc(C(c2ccccc2)[C@H]2CC[C@@H](NCc3cc4ccccc4[nH]3)CN2)cc1`, the IC50 in test [2] turned out to be 1.8 µM; in test [3], 1.01 µM; in test [4], 0.0954 µM; in test [5] it was 0.051 µM. In test [1], the Selectivity ratio worked out at 0.53.
Consider `c1ccc(C(c2ccccc2)[C@H]2CC[C@@H](NCc3c[nH]c4ccccc34)CN2)cc1`, for which the IC50 in test [2] came to 3.01 µM; in test [3] it was 3.79 µM; in test [4], 0.834 µM.
In the case of `Oc1ccc(CN[C@@H]2CC[C@H](C(c3ccccc3)c3ccccc3)NC2)cc1`, the IC50 in test [2] amounted to 0.862 µM; in test [3] it was 0.201 µM; in test [4] it was 0.0659 µM.
`c1ccc(C(c2ccccc2)[C@H]2CC[C@@H](NCc3cccs3)CN2)cc1`: the IC50 in test [2] was determined as 3.65 µM; in test [3] it was 4.73 µM; in test [4], 0.267 µM.
For the molecule `N#Cc1ccc(CN[C@@H]2CC[C@H](C(c3ccccc3)c3ccccc3)NC2)cc1`, the IC50 in test [2] came to 1.55 µM; in test [3] it was 16.6 µM; in test [4] it was 0.109 µM; in test [5], 0.152 µM. The Selectivity ratio in test [1] turned out to be 1.4.
For the molecule `c1ccc(C(c2ccccc2)[C@H]2CC[C@@H](NCc3csc4ccccc34)CN2)cc1`, the IC50 was found to be 2.77 µM in test [2], 1.05 µM in test [3] and 0.515 µM in test [4].
Take `Fc1ccc(CN[C@@H]2CC[C@H](C(c3ccccc3)c3ccccc3)NC2)cc1`: the IC50 is 3.54 µM in test [2], 2.29 µM in test [3], 0.229 µM in test [4] and 0.142 µM in test [5]. Besides, the Selectivity ratio in test [1] was 0.62.
For `Fc1ccc(CNC2CCC(C(c3ccccc3)c3ccccc3)NC2)cc1` (racemic), the Selectivity ratio in test [1] turned out to be 1.4.
In the case of `COc1ccc(CN[C@@H]2CC[C@H](C(c3ccccc3)c3ccccc3)NC2)cc1`, the IC50 was determined as 1.04 µM in test [2], 1.11 µM in test [3], 0.0475 µM in test [4] and 0.0405 µM in test [5]. Besides, the Selectivity ratio in test [1] worked out at 0.85.
